Laboratory results reported in ChEMBL document CHEMBL3774310, “Discovery of antitumor anthra[2,3-b]furan-3-carboxamides: Optimization of synthesis and evaluation of antitumor properties” (Eur J Med Chem, 2016).
Activity calls are given as the source filed them. The rule behind the calls is not given here.

How the values were obtained:
K562 = test: cells; conditions: Homo sapiens, K562, 72 h
Description: Antiproliferative activity against human K562 cells after 72 hrs by MTT assay

[1] = Cell cycle arrest in p53 knockout human HCT116 cells assessed as accumulation in sub G1 phase at 1 uM after 24 to 48 hrs relative to control; assay type: functional, cell-based; conditions: HCT-116
HCT-116 [2] = test: Induction of apoptosis in human HCT116 cells assessed as viable cells at 1 uM after 48 hrs by Annexin V-FITC/propidium iodide staining based assay (reference value: 95 +/- 2%); assay type: functional
[3] = Cytotoxicity against hFB-hTERT6 assessed as reduction in cell viability after 72 hrs by MTT assay; conditions: Homo sapiens, hFB-hTERT6, 72 h
[4] = Cell cycle arrest in human HCT116 cells assessed as decrease in G1 phase at 1 uM after 24 hrs; assay type: functional, cell-based; conditions: HCT-116
[5] = target: T1, DNA topoisomerase 1 (Homo sapiens) (UniProt P11387); test: Poisoning activity at topoisomerase 1 (unknown origin) using 3'-[32P]dGTP labelled 117bp oligonucleotide assessed as induction of DNA cleavage incubated for 20 mins by SDS-PAGE analysis
T1 sequence (whole entry): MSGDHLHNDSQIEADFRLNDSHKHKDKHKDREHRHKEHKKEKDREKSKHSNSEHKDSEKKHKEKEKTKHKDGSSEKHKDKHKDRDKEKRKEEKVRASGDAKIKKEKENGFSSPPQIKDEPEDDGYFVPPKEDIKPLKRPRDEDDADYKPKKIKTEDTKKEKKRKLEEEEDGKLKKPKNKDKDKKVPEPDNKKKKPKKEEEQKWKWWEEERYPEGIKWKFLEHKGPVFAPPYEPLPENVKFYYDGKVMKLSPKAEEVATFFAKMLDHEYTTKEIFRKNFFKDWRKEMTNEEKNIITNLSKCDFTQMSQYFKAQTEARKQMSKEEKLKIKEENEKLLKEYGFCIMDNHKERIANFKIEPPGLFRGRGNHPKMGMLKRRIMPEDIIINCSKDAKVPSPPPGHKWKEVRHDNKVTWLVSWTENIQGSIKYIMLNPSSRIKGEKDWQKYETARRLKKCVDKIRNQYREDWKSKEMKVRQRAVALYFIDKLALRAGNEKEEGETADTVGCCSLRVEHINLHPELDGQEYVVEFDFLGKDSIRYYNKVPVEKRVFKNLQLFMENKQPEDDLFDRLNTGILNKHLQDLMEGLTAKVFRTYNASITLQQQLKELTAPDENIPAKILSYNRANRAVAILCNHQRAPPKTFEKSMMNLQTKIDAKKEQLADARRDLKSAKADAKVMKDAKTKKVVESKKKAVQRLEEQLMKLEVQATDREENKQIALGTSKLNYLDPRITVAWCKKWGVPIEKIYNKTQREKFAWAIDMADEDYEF

P388 [6] = test: Antitumor activity against mouse P388 cells transplanted in DBA2/BDF1 mouse assessed as mean life span at 30 mg/kg, ip dosed daily for 5 days (reference value: 9.7 +/- 1.1 day); assay type: functional
HCT-116 [7] = test: Induction of apoptosis in human HCT116 cells assessed as early apoptotic cells at 1 uM after 24 hrs by Annexin V-FITC/propidium iodide staining based assay (reference value: 2 +/- 1%); assay type: functional
Calf thymus DNA [8] = test: Binding affinity to calf thymus DNA assessed as dissociation constant by Scatchard plot analysis; assay type: nucleic-acid assay, Bos taurus
HCT-116 [9] = test: Induction of apoptosis in human HCT116 cells assessed as late apoptotic cells at 1 uM after 24 hrs by Annexin V-FITC/propidium iodide staining based assay (reference value: 1 +/- 1%); assay type: functional
HCT-116 [10] = test: Induction of apoptosis in p53 knockout human HCT116 cells assessed as necrotic cells at 1 uM after 48 hrs by Annexin V-FITC/propidium iodide staining based assay (reference value: 2 +/- 1%); assay type: functional
Calf thymus DNA [11] = test: Binding affinity to calf thymus DNA assessed as bathochromic shift at 5 uM by spectrophotometric analysis; assay type: nucleic-acid assay; conditions: Bos taurus
L1210 = test: cells; conditions: Mus musculus, L1210, 48 h
Description: Antiproliferative activity against mouse L1210 cells after 48 hrs by MTT assay

HeLa = test: Antiproliferative activity against human HeLa cells after 72 hrs by MTT assay; assay type: functional, cell-based
HCT-116 [12] = test: Induction of apoptosis in p53 knockout human HCT116 cells assessed as early apoptotic cells at 1 uM after 48 hrs by Annexin V-FITC/propidium iodide staining based assay (reference value: 2 +/- 1%); assay type: functional
P388 [13] = test: Antitumor activity against mouse P388 cells transplanted in DBA2/BDF1 mouse assessed as mean life span at 5 mg/kg, ip dosed daily for 5 days relative to control; assay type: functional
Aurora kinase C = Aurora kinase C (Homo sapiens, UniProt Q9UQB9); test: Inhibition of full length human N-terminal GST-HIS6-tagged Aurora C expressed in sf9 cells by flashplate based radiometric 33pan-quinase assay
[14] = target: Fibroblast growth factor receptor 1 (Homo sapiens, UniProt P11362, V561M); test: Inhibition of human FGF-R1 V561M mutant expressed in sf9 cells by flashplate based radiometric 33pan-quinase assay
P388 [15] = test: Antitumor activity against mouse P388 cells transplanted in DBA2/BDF1 mouse assessed as mean life span at 40 mg/kg, ip dosed daily for 5 days relative to control; assay type: functional
[16] = target: Serine/threonine-protein kinase tousled-like 1 (Homo sapiens, UniProt Q9UKI8); test: Inhibition of human N-terminal FLAG, C-terminal HIS8-tagged TLK1 expressed in sf9 cells by flashplate based radiometric 33pan-quinase assay
P388 [17] = test: Antitumor activity against mouse P388 cells transplanted in DBA2/BDF1 mouse assessed as mean life span at 20 mg/kg, ip dosed daily for 5 days relative to control; assay type: functional
[18] = target: Serine/threonine-protein kinase pim-3 (Homo sapiens, UniProt Q86V86); test: Inhibition of full length human N-terminal GST-HIS6-tagged PIM3 expressed in sf9 cells by flashplate based radiometric 33pan-quinase assay
[19] = target: Serine/threonine-protein kinase pim-1 (Homo sapiens, UniProt P11309); test: Inhibition of full length human N-terminal GST-HIS6-tagged PIM1 expressed in sf9 cells by flashplate based radiometric 33pan-quinase assay
P388 [20] = test: Antitumor activity against mouse P388 cells transplanted in DBA2/BDF1 mouse assessed as mean life span at 10 mg/kg, ip dosed daily for 5 days (reference value: 9.6 +/- 0.5 day); assay type: functional
Aurora kinase B = Aurora kinase B (Homo sapiens, UniProt Q96GD4); test: Inhibition of full length human N-terminal GST-HIS6-tagged Aurora B expressed in sf9 cells by flashplate based radiometric 33pan-quinase assay
[21] = target: MAP kinase-interacting serine/threonine-protein kinase 1 (Homo sapiens, UniProt Q9BUB5); test: Inhibition of human MKNK1 by flashplate based radiometric 33pan-quinase assay
[22] = target: Mitogen-activated protein kinase kinase kinase 7 (Homo sapiens, UniProt O43318); test: Inhibition of human MAP3K7 by flashplate based radiometric 33pan-quinase assay
P388 [23] = test: Antitumor activity against mouse P388 cells transplanted in DBA2/BDF1 mouse assessed as mean life span at 20 mg/kg, ip dosed daily for 5 days (reference value: 9.6 +/- 0.5 day); assay type: functional

Sequence of Aurora kinase B (Q96GD4 whole entry): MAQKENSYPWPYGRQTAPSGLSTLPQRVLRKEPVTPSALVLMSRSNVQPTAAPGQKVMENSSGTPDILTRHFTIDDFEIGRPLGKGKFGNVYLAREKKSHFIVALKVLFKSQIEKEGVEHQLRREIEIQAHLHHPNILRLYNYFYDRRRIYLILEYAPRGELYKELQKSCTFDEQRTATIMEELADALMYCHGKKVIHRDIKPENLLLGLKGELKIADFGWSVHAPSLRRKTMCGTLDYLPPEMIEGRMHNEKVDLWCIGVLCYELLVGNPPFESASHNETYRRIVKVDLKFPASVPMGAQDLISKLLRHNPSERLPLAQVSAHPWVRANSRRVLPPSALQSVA
Sequence of Serine/threonine-protein kinase tousled-like 1 (Q9UKI8 whole entry): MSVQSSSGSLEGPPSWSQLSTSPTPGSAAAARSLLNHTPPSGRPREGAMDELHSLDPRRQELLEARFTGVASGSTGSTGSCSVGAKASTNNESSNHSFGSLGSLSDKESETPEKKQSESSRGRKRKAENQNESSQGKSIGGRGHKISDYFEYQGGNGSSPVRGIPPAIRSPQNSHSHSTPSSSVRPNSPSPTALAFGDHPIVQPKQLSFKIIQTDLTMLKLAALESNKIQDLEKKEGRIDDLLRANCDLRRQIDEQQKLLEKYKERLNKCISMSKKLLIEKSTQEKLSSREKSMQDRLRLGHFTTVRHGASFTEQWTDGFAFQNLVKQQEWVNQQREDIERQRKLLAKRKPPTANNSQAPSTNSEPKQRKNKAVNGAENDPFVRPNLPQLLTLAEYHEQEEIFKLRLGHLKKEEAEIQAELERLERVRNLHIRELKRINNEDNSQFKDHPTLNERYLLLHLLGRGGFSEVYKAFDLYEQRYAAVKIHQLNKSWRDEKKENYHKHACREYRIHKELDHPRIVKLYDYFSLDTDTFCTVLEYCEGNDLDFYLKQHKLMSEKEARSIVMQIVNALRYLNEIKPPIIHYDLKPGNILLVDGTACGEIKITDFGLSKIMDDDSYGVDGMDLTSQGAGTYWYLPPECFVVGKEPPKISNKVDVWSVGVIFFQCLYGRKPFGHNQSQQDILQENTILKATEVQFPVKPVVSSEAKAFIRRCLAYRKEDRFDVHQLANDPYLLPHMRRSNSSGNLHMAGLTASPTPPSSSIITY
Sequence of Mitogen-activated protein kinase kinase kinase 7 (O43318 whole entry): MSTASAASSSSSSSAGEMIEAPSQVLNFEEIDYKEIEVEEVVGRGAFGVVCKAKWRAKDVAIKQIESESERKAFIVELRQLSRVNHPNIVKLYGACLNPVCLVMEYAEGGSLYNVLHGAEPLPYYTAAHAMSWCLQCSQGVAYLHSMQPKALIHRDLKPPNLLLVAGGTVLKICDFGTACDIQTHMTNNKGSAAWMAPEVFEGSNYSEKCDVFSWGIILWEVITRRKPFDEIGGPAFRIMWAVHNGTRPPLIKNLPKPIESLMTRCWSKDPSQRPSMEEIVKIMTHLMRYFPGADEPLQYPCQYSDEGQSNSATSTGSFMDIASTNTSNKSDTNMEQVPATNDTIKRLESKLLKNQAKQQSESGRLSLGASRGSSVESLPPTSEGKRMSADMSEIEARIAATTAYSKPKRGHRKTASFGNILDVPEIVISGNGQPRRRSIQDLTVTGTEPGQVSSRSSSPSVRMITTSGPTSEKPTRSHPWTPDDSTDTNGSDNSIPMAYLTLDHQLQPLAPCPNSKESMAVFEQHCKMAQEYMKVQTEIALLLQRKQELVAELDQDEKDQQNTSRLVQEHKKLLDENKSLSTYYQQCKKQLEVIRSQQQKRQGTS
Sequence of Aurora kinase C (Q9UQB9 whole entry): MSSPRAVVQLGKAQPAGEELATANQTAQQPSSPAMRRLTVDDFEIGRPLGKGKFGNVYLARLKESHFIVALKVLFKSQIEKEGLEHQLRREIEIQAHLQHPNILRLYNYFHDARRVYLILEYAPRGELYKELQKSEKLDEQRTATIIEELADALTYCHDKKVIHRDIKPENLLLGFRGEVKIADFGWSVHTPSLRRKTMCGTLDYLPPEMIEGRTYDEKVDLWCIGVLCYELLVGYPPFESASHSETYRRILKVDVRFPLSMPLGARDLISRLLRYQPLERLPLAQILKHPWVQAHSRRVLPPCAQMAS
Sequence of Fibroblast growth factor receptor 1 (P11362 22-822 V561M limits assumed): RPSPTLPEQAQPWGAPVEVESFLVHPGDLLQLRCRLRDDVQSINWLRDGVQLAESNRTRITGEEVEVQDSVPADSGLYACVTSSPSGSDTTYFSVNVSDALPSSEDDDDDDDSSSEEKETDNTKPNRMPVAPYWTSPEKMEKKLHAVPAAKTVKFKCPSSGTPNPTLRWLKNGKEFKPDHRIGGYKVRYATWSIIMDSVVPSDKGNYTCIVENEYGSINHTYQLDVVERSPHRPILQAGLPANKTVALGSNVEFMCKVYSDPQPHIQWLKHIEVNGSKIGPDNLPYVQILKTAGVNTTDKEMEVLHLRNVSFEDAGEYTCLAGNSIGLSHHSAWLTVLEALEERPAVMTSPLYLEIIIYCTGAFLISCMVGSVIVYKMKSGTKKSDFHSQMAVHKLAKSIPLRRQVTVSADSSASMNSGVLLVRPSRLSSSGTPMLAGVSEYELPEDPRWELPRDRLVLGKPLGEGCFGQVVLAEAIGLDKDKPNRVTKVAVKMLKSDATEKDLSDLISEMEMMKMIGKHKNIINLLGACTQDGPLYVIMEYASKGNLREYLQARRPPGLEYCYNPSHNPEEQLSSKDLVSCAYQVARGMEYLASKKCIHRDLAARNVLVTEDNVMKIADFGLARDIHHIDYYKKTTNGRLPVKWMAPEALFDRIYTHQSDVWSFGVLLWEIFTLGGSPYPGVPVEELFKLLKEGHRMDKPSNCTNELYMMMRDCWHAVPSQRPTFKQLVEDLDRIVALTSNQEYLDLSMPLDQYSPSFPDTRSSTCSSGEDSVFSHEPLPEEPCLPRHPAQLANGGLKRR
Sequence of MAP kinase-interacting serine/threonine-protein kinase 1 (Q9BUB5 whole entry): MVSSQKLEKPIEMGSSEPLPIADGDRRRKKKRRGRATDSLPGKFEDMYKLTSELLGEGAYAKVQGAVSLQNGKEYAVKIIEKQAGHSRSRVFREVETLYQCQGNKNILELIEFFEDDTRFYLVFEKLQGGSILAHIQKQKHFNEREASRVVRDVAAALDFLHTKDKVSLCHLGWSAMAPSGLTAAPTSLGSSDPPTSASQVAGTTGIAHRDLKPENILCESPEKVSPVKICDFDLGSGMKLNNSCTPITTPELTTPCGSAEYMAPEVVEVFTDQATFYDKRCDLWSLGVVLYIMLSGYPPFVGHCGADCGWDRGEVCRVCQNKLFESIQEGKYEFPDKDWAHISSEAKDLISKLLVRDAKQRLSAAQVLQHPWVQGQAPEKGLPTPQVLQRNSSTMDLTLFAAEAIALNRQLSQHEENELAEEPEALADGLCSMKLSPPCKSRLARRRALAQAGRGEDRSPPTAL
Sequence of Serine/threonine-protein kinase pim-1 (P11309 whole entry): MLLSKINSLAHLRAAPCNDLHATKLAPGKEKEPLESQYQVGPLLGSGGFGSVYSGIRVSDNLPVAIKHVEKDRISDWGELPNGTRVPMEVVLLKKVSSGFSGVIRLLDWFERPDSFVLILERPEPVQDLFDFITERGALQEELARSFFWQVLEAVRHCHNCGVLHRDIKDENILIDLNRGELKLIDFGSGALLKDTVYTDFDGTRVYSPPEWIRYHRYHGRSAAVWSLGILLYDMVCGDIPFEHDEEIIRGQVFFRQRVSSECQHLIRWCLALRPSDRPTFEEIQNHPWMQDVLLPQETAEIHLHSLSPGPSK

## CS(=O)(=O)O.Cc1oc2c(O)c3c(c(O)c2c1C(=O)N1CC[C@@H](N)C1)C(=O)c1ccccc1C3=O
K562
  IC50: 1.1 µM
[1]
  Activity: > 70%
HCT-116 [2]
  Activity: Active
[3]
  IC50: > 50 µM
[4]
  Activity: Active
[5]
  Activity: inactive
P388 [6]
  Activity: 11.8 days
HCT-116 [7]
  Activity: Active
Calf thymus DNA [8]
  Kd: 2 µM
HCT-116 [9]
  Activity: Active
HCT-116 [10]
  Activity: Active
Calf thymus DNA [11]
  Activity: 9 nm
L1210
  IC50: 1.9 µM
HeLa
  IC50: 2.1 µM
HCT-116 [12]
  Activity: Active

## CS(=O)(=O)O.Cc1oc2c(O)c3c(c(O)c2c1C(=O)N1CC[C@H](N)C1)C(=O)c1ccccc1C3=O
P388 [13]
  Activity: 140%
Aurora kinase C
  IC50: < 5 µM
[14]
  IC50: < 5 µM
P388 [15]
  Activity: 262%
[1]
  Activity: > 70%
[16]
  IC50: < 5 µM
P388 [17]
  Activity: 222%
HCT-116 [2]; HCT-116, 48 h, read-out: Activity
  viability at 1 µM: 12%
[3]
  IC50: > 50 µM
[4]
  Activity: Active
[5]
  Activity: inactive
HCT-116 [7]
  Activity: 20%
HCT-116 [9]
  Activity: 12%
HCT-116 [10]
  Activity: 33%
[18]
  IC50: < 5 µM
[19]
  IC50: < 5 µM
P388 [20]
  Activity: 16.3 days
Aurora kinase B
  IC50: < 5 µM
Calf thymus DNA [11]
  Activity: 9 nm
[21]
  IC50: < 5 µM
[22]
  IC50: < 5 µM
P388 [23]
  Activity: 21.3 days
HCT-116 [12]
  Activity: 46%
